Like-named read-outs stand apart in the source and are kept apart here.
Assays:
[1] = tested on: gerbil hippocampus calcium levels; assay: Prevention of increases in calcium levels in gerbil hippocampus following bilateral artery occlusion; assay type: in vivo
Excerpt: (d) The neuroprotective activity of compounds for use in accordance with the invention has also been determined by measuring the ability of the compounds to prevent increases in calcium levels in the gerbil hippocampus following bilateral artery occlusion.

[2] = molecular target: N-methyl-D-aspartate (NMDA) receptors ([3H]-MK-801 binding); assay: Displacement of [3H]-MK-801 binding, crude synaptosomal membrane fraction (P2) from rat cerebral cortex; conditions: displacement of [3H]-MK-801, rat cerebral cortex membranes
Method: The compounds useful in the novel method of treatment of this invention bind with a high affinity and in a reversible and saturable manner to membranes from rat brain cortex. In addition these useful compounds potently and selectively block responses to NMDA in a brain slice from rate cortex, the antagonism apparently being non-competitive.
Binding of [^3 H]-MK-801 to rat brain in vitro was conducted in a crude synaptosomal membrane fraction (P2) prepared from rat cerebral cortex according to a modified method of Hulme et al, Molecular Pharmocology 14, 737-750 (1978).

[3] = tested on: NMDA responses of cortical neurons (NMDA receptor); assay: Rat cortical slice, responses to NMDA; assay type: cell-based; conditions: read-out: Apparent Potency as NMDA Antagonist Kb
Method: (§1) The effects of MK-801 and its analogs on responses to NMDA and quisqualate were assessed using the rat cortical slice as described by Harrison et al., Brit. J. Pharmacol, 84, 381-391 (1985). Cortical neurons in this preparation are depolarized by bath applications of NMDA. MK-801 produces a dose dependent depression of NMDA responses with a threshold dose of about 100 nM and complete suppression of responses at 1 μM.
The apparent potencies of MK-801 and its analogs are shown in Table IV; they correlate closely with results from [^3 H]-MK-801 binding studies.

[4] = tested on: NMDA receptor mediated events on central neurons; assay: Cortical slices from rats pretreated with MK-801, responses to NMDA; assay type: in vivo, rat; conditions: slices from rats pretreated 1 mg/kg i.p. 2 hours before sacrifice, vs untreated animals
Method: (§2) The responses to NMDA and quisqualate were examined on cortical slices from 4 rats which had been pretreated with MK-801 (1 mg/kg, i.p) 2 hours before they were sacrificed. Responses to NMDA were markedly depressed resulting in a shift to the right of the NMDA dose-response curve of approximately 2.4 fold when compared to the mean NMDA dose-response curved from untreated animals.

responses to quisqualate [5] = assay: Cortical slices from rats pretreated with MK-801, responses to quisqualate; assay type: in vivo, rat; conditions: slices from rats pretreated 1 mg/kg i.p. 2 hours before sacrifice
Method: as §2

responses to quisqualate [6] = assay: Rat cortical slice, responses to quisqualate; assay type: cell-based; conditions: doses of up to 30 μM
Method: as §1

gerbils = assay: Gerbil ischaemia, 30 minute unilateral carotid artery occlusion, survival; assay type: in vivo; conditions: 30 min occlusion
Method: (§3) (a) Ischaemia was induced in gerbils by 10 or 30 minute unilateral occlusion of the carotid artery. Restoration of blood flow after occlusion was checked visually and the animals were allowed to survive for 4 days. The extent of neuronal degeneration in the hippocampus was assessed. Test animals were treated by administering MK-801 at doses of 1 and 10 mg/kg (i.p.) one hour prior to artery occulsion.

responses to kainate = assay: Rat cortical slice, responses to kainate; assay type: cell-based; conditions: doses of up to 30 μM
[7] = tested on: gerbils (neuronal degeneration in the hippocampus); assay: Gerbil ischaemia, 5 minute occlusion of both carotid arteries, neuronal degeneration in hippocampus; assay type: in vivo
Method: (c) Ischaemia was induced in gerbils by 5 minute occlusion of both carotid arteries. Restoration of blood flow after occlusion was checked visually and the animals allowed to survive for 4 days. The extent of neuronal degeneration in the hippocampus was measured. Test animals were treated by administering MK-801 at doses of 1, 3 and 10 mg/kg (i.p.) one hour prior to occlusion.

[8] = tested on: gerbils (neuronal degeneration in the hippocampus); assay: Gerbil ischaemia, 10 minute unilateral carotid artery occlusion, neuronal degeneration in hippocampus; assay type: in vivo; conditions: 10 min occlusion
Method: as §3

[9] = tested on: gerbils (neuronal damage in the hippocampus); assay: Gerbil right carotid artery occlusion 10 minutes, repeated MK-801 dosing, neuronal damage in hippocampus; assay type: in vivo; conditions: 1 mg/kg i.p. one hour before, then 1, 3, 5, 10 and 15 hours following 10 min occlusion
Method: (b) The right carotid artery of gerbils was occluded for 10 minutes and MK-801 at a dose of 1 mg/kg (i.p.) administered one hour before, then 1, 3, 5, 10 and 15 hours following occlusion. The animals were allowed to survive for 4 days and the extent of neuronal damage in the hippocampus was assessed.

[10] = Table I, read-out: Displacement potencies Ki
[11] = Table II, read-out: Displacement potencies Ki

SMILES	Ki [2, 10]	Kb [3]	also measured
CC12NC(Cc3cc(O)ccc31)c1ccccc12 [L-641,291]	0.34 µM	0.51 µM	Depression of Hippocampal [Ca^2+] Relative Potency (MK-801 = 1) [1]: 1
CCC12NC(Cc3ccccc31)Cc1ccccc12 [L-639,420]	–	0.2 µM	Ki [2, 11]: 0.12 µM
CC12NC(Cc3ccccc31)c1cc(O)ccc12 [L-641,285]	0.05 µM	0.1 µM	–
CN1C2(C)c3ccccc3C1(C)c1cc(C(F)(F)F)ccc12 [L-631,922]	–	–	Ki ([2]; Table III, read-out: Ki): 109 µM
CN1C2Cc3ccccc3C1(C)c1ccccc12 [L-638,275]	0.83 µM	–	–
CC12NC(Cc3ccccc31)c1ccc(Cl)cc12 [L-641,368]	0.08 µM	1 µM	–
CN1C2(C)c3ccccc3C1(C)c1ccccc12 [L-627,891]	–	1.13 µM	Ki ([2]; Table III, read-out: Ki): 0.22 µM
OCCC12NC(Cc3ccccc31)c1ccccc12 [L-639,902]	0.26 µM	0.2 µM	–
CC12NC(Cc3ccccc31)c1ccccc12 [L-637,939]	0.56 µM	0.09 µM	–
COc1ccc2c(c1)C1Cc3ccccc3C2(C)N1 [L-641,086]	0.04 µM	–	–
CN1C2Cc3ccccc3C1c1ccccc12 [L-638,276]	11.9 µM	–	–
CC12NC(Cc3ccccc31)c1ccc(O)cc12 [L-665,039]	0.02 µM	0.13 µM	Depression of Hippocampal [Ca^2+] Relative Potency (MK-801 = 1) [1]: 0.8
CCCCN1C2(C)c3ccccc3C1(C)c1ccccc12 [L-633,744]	–	0.47 µM	Ki ([2]; Table III, read-out: Ki): 0.39 µM
CN1C2(C)c3ccccc3C1(C)c1cc(C#N)ccc12 [L-633,239]	–	–	Ki ([2]; Table III, read-out: Ki): 31.3 µM
CC12NC(Cc3ccc(Br)cc31)c1ccccc12 [L-639,441]	0.02 µM	1 µM	–
CCCN1C2(C)c3ccccc3C1(C)c1ccccc12 [L-633,170]	–	0.3 µM	Ki ([2]; Table III, read-out: Ki): 0.35 µM
CC12NC(Cc3ccc(Cl)cc31)c1ccccc12 [L-641,294]	0.01 µM	0.05 µM	–

SMILES	Ki [2, 10]	Kb [3]	also measured
COc1ccc2c(c1)CC1NC2(C)c2ccccc21 [L-641,074]	0.605 µM	–	–
CC12c3ccccc3C(C)(c3ccccc31)N2C1CC1 [L-632,938]	–	0.64 µM	Ki ([2]; Table III, read-out: Ki): 4 µM
CCCN1C2Cc3ccccc3C1(C)c1ccccc12 [L-645,156]	0.45 µM	–	–
CCCC12NC(Cc3ccccc31)c1ccccc12 [L-639,470]	8.6 µM	3 µM	–
CC12NC(Cc3ccccc31)Cc1ccccc12 [L-638,204]	–	0.31 µM	Ki [2, 11]: 0.14 µM
C=CCN1C2Cc3ccccc3C1(C)c1ccccc12 [L-639,015]	3.4 µM	3.1 µM	–
CN1C2Cc3ccccc3C1(C)c1ccccc12 [L-645,114]	0.509 µM	–	–
CN1C2c3ccccc3C1(C)c1ccccc12 [L-631,876]	–	–	Ki ([2]; Table III, read-out: Ki): 6.93 µM
CN1C2(C)Cc3ccccc3C1(C)c1ccccc12 [L-640,688]	0.71 µM	0.87 µM	–
Clc1ccc2c(c1)C1NC(Cc3ccccc31)C2 [L-639,450]	–	–	Ki [2, 11]: 0.15 µM
CN1C2Cc3ccccc3C1(C)c1ccccc1C2 [L-637,686]	–	2 µM	Ki [2, 11]: 1.2 µM
CCC12NC(Cc3ccccc31)c1ccccc12 [L-639,057]	0.05 µM	0.5 µM	–
CC12NC(Cc3ccccc31)c1ccc(Br)cc12 [L-639,442]	0.18 µM	0.4 µM	–
CC12NC(Cc3ccccc31)c1ccccc12 (single isomer, unassigned) [L-640,690]	0.32 µM	0.3 µM	–
CC12c3ccccc3CC(c3ccccc31)N2CCO [L-641,042]	12.8 µM	–	–
CC12NC(Cc3ccccc31)c1ccccc12 (single isomer, unassigned) [L-640,689, 5-methyl-10,11-dihydro-5H-dibenzo[a,d]cyclohepten-5,10-imine]	0.04 µM	–	shift to the right of the NMDA dose-response curve [4]: approximately 2.4 fold; effect on responses to quisqualate (responses to quisqualate [5]): much less affected with only the highest dose slightly depressed; ED50 ([1]; Meriones unguiculatus, read-out: Depression of Hippocampal [Ca^2+] IC50): ~0.1 mg/kg; effect on responses to quisqualate (responses to quisqualate [6]): totally unaffected; Number dead (gerbils; 1 mg/kg i.p. one hour prior): 4; Number of animals surviving (gerbils; 1 mg/kg i.p. one hour prior): 11; Number dead (gerbils; 10 mg/kg i.p. one hour prior): 1; Number of animals surviving (gerbils; 10 mg/kg i.p. one hour prior): 14; effect on responses to kainate (responses to kainate): totally unaffected; Percentage of animals with full protection ([7]; 1 mg/kg i.p. one hour prior to 5 min bilateral occlusion): 60; Percentage of animals with full protection ([7]; 3 mg/kg i.p. one hour prior to 5 min bilateral occlusion): 80; Percentage of animals with full protection ([7]; 10 mg/kg i.p. one hour prior to 5 min bilateral occlusion): 70; Number of animals showing damage ([8]; 1 mg/kg i.p. one hour prior): 4; Number undamaged ([8]; 1 mg/kg i.p. one hour prior): 11; Number of animals showing damage ([8]; 10 mg/kg i.p. one hour prior): 3; Number undamaged ([8]; 10 mg/kg i.p. one hour prior): 12; Number of animals showing damage [9]: 1; Number undamaged [9]: 8
